According to ChEMBL document CHEMBL5233239, “Matrix metalloproteinase-9 (MMP-9) and its inhibitors in cancer: A minireview” (Eur J Med Chem, 2020):

Assays:
Interstitial collagenase [1] = biological target: T1, Interstitial collagenase (Homo sapiens, UniProt P03956); assay: Inhibition of recombinant human MMP1 expressed in Escherichia coli BL21 (DE3) using Mca-Pro-Leu-Gly-Leu-Dpa-Ala-Arg-NH2 as substrate incubated for 20 to 30 mins by fluorescence assay
T1 sequence (P03956 whole entry): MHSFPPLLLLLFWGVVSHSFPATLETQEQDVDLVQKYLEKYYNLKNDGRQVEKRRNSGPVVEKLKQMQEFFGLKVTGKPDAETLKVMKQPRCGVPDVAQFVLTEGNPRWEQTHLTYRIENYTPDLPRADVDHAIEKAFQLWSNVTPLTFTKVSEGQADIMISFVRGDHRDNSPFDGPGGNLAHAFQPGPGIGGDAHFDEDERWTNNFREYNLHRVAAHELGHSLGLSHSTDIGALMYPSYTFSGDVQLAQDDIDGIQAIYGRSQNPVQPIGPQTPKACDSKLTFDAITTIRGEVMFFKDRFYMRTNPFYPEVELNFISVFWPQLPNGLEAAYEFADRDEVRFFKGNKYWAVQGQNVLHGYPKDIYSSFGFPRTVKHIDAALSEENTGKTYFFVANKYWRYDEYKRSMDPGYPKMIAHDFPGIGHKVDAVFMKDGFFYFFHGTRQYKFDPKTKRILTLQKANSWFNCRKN

Stromelysin-1 [2] = biological target: T2, Stromelysin-1 (Homo sapiens, UniProt P08254); assay: Inhibition of recombinant human MMP3 expressed in Escherichia coli BL21 (DE3) using [3H]transferrin as substrate incubated for 3 hrs by scintillation counter analysis
T2 sequence (P08254 whole entry): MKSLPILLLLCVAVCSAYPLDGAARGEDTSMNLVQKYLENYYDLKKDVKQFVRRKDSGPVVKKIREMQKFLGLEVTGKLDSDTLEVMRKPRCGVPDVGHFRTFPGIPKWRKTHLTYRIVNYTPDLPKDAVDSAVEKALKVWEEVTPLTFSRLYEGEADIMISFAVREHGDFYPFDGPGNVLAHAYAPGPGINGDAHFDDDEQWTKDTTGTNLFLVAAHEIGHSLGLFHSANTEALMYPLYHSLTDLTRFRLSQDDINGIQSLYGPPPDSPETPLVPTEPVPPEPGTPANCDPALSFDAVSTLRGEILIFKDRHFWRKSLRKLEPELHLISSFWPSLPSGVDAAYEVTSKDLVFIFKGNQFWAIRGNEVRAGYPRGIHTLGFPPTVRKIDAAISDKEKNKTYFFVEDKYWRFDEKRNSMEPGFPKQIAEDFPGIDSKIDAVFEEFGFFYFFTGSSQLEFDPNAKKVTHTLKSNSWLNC

Matrilysin [3] = biological target: T3, Matrilysin (Homo sapiens, UniProt P09237); assay: Inhibition of recombinant human MMP7 using […] as substrate incubated for 20 to 30 mins by fluorescence microplate reader analysis
T3 sequence (P09237 whole entry): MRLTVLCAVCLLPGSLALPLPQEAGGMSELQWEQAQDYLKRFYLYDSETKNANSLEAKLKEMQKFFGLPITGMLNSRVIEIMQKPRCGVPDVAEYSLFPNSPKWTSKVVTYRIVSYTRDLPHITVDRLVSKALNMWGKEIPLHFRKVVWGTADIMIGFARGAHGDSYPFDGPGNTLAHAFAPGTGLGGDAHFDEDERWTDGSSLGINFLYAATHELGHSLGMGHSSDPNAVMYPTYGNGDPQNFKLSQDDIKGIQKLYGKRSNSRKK

[4] = biological target: T4, Matrix metalloproteinase-9 (Homo sapiens, UniProt P14780); assay: Inhibition of recombinant human MMP9 using […] as substrate incubated for 20 to 30 mins by fluorescence microplate reader analysis
T4 sequence (P14780 whole entry): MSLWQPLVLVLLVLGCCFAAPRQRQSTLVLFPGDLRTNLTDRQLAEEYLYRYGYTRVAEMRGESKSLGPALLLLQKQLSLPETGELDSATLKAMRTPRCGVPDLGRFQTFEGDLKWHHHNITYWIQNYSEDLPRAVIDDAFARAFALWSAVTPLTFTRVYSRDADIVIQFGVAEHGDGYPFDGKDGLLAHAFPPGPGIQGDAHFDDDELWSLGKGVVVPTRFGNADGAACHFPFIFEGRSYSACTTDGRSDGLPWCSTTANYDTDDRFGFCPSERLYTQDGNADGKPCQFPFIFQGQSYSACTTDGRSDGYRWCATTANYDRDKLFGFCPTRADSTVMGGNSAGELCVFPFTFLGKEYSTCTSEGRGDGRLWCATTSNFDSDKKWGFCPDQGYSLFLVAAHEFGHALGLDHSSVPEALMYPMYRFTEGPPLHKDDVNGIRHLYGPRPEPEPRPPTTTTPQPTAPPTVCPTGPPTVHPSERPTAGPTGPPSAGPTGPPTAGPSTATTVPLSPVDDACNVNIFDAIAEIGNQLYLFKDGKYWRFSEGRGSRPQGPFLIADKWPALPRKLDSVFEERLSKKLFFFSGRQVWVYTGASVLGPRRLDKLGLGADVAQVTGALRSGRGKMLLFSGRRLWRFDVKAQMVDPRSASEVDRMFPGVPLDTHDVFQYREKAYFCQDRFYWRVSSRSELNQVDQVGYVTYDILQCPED

Collagenase 3 [5] = biological target: T5, Collagenase 3 (Homo sapiens, UniProt P45452); assay: Inhibition of recombinant human MMP13 using […] as substrate incubated for 20 to 30 mins by fluorescence microplate reader analysis
[6] = biological target: T6, 72 kDa type IV collagenase (Homo sapiens, UniProt P08253); assay: Inhibition of recombinant human full length MMP2 using […] as substrate incubated for 20 to 30 mins by fluorescence microplate reader analysis
T6 sequence (P08253 whole entry): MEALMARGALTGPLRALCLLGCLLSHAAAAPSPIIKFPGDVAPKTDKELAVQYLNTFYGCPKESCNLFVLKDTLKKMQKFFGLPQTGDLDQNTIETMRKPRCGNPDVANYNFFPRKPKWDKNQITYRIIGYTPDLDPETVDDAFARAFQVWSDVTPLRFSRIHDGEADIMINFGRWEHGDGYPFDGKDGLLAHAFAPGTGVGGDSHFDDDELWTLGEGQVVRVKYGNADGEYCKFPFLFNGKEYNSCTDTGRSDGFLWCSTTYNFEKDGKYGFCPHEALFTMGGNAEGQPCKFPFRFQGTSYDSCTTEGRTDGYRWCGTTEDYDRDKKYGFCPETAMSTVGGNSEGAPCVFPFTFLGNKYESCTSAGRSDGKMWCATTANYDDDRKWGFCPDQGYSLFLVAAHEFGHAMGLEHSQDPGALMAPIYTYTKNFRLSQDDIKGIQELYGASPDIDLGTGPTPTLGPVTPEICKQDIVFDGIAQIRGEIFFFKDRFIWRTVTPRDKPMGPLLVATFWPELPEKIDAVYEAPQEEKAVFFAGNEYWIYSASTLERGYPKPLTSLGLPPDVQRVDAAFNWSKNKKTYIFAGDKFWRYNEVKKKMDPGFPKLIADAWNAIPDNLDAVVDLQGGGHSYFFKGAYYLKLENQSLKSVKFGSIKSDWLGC

Neutrophil collagenase [7] = biological target: T7, Neutrophil collagenase (Homo sapiens, UniProt P22894); assay: Inhibition of recombinant human MMP8 using […] as substrate incubated for 20 to 30 mins by fluorescence microplate reader analysis
T7 sequence (P22894 whole entry): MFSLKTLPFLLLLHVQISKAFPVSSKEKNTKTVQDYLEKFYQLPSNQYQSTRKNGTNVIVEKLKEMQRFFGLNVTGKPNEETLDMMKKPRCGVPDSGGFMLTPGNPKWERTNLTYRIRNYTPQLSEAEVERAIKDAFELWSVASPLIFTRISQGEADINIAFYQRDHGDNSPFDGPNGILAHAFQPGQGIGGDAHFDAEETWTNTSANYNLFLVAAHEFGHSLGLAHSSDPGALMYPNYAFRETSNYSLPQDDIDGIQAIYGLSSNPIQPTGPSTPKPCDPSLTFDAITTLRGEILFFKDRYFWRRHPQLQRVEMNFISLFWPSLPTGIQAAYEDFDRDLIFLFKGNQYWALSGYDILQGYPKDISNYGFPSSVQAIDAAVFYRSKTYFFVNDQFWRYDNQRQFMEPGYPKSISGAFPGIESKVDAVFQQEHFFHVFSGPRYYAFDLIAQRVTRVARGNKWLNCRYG

[8] = biological target: T4, Matrix metalloproteinase-9; assay: Inhibition of MMP-9 (unknown origin) assessed as inhibition constant using Mca-Pro-Leu-Gly-Dpa-Ala-Arg-NH2 substrate preincubated for 1 hr followed by substrate addition and measured after 1 hr by fluorimetric analysis
[9] = biological target: T6, 72 kDa type IV collagenase; assay: Inhibition of MMP-2 (unknown origin) assessed as inhibition constant using Mca-Pro-Leu-Gly-Dpa-Ala-Arg-NH2 substrate preincubated for 1 hr followed by substrate addition and measured after 1 hr by fluorimetric analysis
[10] = biological target: T4, Matrix metalloproteinase-9; assay: Inhibition of MMP-9 (unknown origin)
Collagenase 3 [11] = biological target: T5, Collagenase 3
Description: Inhibition of MMP-13 (unknown origin)

Interstitial collagenase [12] = biological target: T1, Interstitial collagenase; assay: Inhibition of MMP-1 (unknown origin)
Neutrophil collagenase [13] = biological target: T7, Neutrophil collagenase; assay: Inhibition of MMP-8 (unknown origin)
Matrilysin [14] = biological target: T3, Matrilysin; assay: Inhibition of MMP-7 (unknown origin)
Interstitial collagenase [15] = biological target: T1, Interstitial collagenase; assay: Inhibition of human MMP1 using Dnp-Pro-Cha-Gly-Cys(ME)-His-Ala-Lys(Nma)-NH2 as substrate preincubated for 0.5 hrs followed by substrate addition and measured after 6 hrs by fluorimeter analysis
[16] = biological target: T6, 72 kDa type IV collagenase; assay: Inhibition of human MMP2 using Dnp-Pro-Cha-Gly-Cys(ME)-His-Ala-Lys(Nma)-NH2 as substrate preincubated for 0.5 hrs followed by substrate addition and measured after 6 hrs by fluorimeter analysis
Stromelysin-1 [17] = biological target: T2, Stromelysin-1; assay: Inhibition of human MMP3 using (7-methoxycoumarine-4-yl)-Arg-Pro-Lys-Pro-Tyr-Ala-Nva-Trp-Met-Lys(Dnp)-NH2 as substrate preincubated for 0.5 hrs followed by substrate addition and measured after 6 hrs by fluorimeter analysis
[18] = biological target: T4, Matrix metalloproteinase-9; assay: Inhibition of human MMP9 using Dnp-Pro-Cha-Gly-Cys(ME)-His-Ala-Lys(Nma)-NH2 as substrate preincubated for 0.5 hrs followed by substrate addition and measured after 6 hrs by fluorimeter analysis
Collagenase 3 [19] = biological target: T5, Collagenase 3; assay: Inhibition of human MMP13 using Dnp-Pro-Cha-Gly-Cys(ME)-His-Ala-Lys(Nma)-NH2 as substrate preincubated for 0.5 hrs followed by substrate addition and measured after 6 hrs by fluorimeter analysis
[20] = biological target: Disintegrin and metalloproteinase domain-containing protein 17 (Homo sapiens, UniProt P78536); assay: Inhibition of TACE (unknown origin)
Sequence of Disintegrin and metalloproteinase domain-containing protein 17 (P78536 whole entry, the tested form may be a part): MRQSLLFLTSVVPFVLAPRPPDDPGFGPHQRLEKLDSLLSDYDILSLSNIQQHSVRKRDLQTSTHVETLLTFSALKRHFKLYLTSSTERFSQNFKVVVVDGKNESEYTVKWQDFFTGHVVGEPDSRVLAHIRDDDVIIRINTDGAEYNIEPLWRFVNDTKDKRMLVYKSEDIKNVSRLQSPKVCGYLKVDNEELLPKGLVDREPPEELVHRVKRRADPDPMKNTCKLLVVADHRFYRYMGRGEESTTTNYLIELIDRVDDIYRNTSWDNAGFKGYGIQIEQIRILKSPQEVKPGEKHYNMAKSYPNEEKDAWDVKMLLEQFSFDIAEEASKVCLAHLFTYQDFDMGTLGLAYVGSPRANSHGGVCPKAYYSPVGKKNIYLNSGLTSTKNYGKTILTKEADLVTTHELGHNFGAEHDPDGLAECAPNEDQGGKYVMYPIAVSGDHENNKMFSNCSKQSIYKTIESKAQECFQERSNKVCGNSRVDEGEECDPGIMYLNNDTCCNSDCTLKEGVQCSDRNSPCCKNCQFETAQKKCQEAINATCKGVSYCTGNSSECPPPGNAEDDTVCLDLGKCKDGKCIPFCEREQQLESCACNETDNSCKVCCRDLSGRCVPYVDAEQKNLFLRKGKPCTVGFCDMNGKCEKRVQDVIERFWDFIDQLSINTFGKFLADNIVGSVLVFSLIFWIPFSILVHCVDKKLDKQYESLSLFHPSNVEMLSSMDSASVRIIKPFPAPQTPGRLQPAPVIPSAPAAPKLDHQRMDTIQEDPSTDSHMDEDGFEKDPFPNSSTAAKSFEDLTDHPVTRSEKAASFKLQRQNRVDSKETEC

[21] = biological target: T4, Matrix metalloproteinase-9; assay: Inhibition of human MMP-9
[22] = biological target: T6, 72 kDa type IV collagenase; assay: Inhibition of human MMP-2
[23] = biological target: T6, 72 kDa type IV collagenase; assay: Inhibition of MMP-2 (unknown origin) using Ac-PLG-[2-mercapto-4-methylpentanoyl]-LG-OC2H5) as substrate measured upto 20 mins by microplate reader analysis
[24] = biological target: T4, Matrix metalloproteinase-9; assay: Inhibition of MMP-9 (unknown origin) using Ac-PLG-[2-mercapto-4-methylpentanoyl]-LG-OC2H5) as substrate measured upto 20 mins by microplate reader analysis

COc1ccc(S(=O)(=O)N2CCN(c3cccnc3)CC2C(=O)NO)cc1 (configuration not stated)
IC50 (Interstitial collagenase [1]): 944 nM
IC50 (Stromelysin-1 [2]): 184 nM
IC50 (Matrilysin [3]): 27700 nM
IC50 [4]: 32 nM
IC50 (Collagenase 3 [5]): 57 nM

COc1ccc(S(=O)(=O)N2CCCC(C)(C)CC2C(=O)NO)cc1 (configuration not stated)
IC50 (Interstitial collagenase [1]): 2.4 nM
IC50 [6]: 1.4 nM
IC50 (Stromelysin-1 [2]): 3.3 nM
IC50 (Matrilysin [3]): 18 nM
IC50 (Neutrophil collagenase [7]): 1.9 nM
IC50 [4]: 0.5 nM

CCCCCCCCCC[C@@H](CC(=O)NO)C(=O)N[C@H](C(=O)NC)c1ccccc1
IC50 [8]: 0.2 nM
IC50 [9]: 1.6 nM

CCCCOc1ccc(S(=O)(=O)C2(C(=O)NO)CCN(Cc3ccccc3)CC2)cc1
IC50 [10]: 3 nM
IC50 (Collagenase 3 [11]): 16 nM

COc1ccc(S(=O)(=O)N2CN(Cc3ccccc3)C(=O)CC2C(=O)NO)cc1 (configuration not stated)
IC50 [10]: 6.8 nM
IC50 (Interstitial collagenase [12]): 22.2 nM
IC50 (Neutrophil collagenase [13]): 6.4 nM
IC50 (Matrilysin [14]): > 10000 nM

O=C(O)[C@H]1[C@H](CN2C(=O)c3ccccc3C2=O)CC[C@@H]1SCc1ccc(-c2ccc(Cl)cc2)cc1
IC50 (Interstitial collagenase [15]): 50000 nM
IC50 [16]: 73 nM
IC50 (Stromelysin-1 [17]): 45 nM
IC50 [18]: 13 nM
IC50 (Collagenase 3 [19]): 129 nM

COc1ccc(S(=O)(=O)N(Cc2ccccc2)c2c(C(=O)NO)ccc3c(C(C)(C)C)cccc23)cc1
IC50 [10]: 9 nM
IC50 (Interstitial collagenase [12]): 3100 nM
IC50 (Collagenase 3 [11]): 16 nM
IC50 [20]: 401 nM

CCCN(C(CSC)C(=O)NO)S(=O)(=O)c1ccc(OC)cc1 (configuration not stated)
IC50 [21]: 0.2 nM
IC50 [22]: 0.7 nM

COc1ccc(S(=O)(=O)N(C)c2c(CN3CCOCC3)cc(C)cc2C(=O)NO)cc1
IC50 [10]: 5 nM
IC50 (Interstitial collagenase [12]): 608 nM
IC50 (Collagenase 3 [11]): 14 nM
IC50 [20]: 174 nM

CNC(=O)[C@H](Cc1ccccc1)NC(=O)[C@H](CC(C)C)[C@H](CSc1cccs1)C(=O)NO [BATIMASTAT]
IC50 [10]: 1 nM

O=C(NO)C1(S(=O)(=O)c2ccc(-n3cc(-c4ccc(-c5cncnc5)cc4)nn3)cc2)CCOCC1
IC50 [23]: 0.5 nM
IC50 [24]: 0.8 nM
